Values of other authors in patent publication US20210324434A1, “METHOD FOR PRODUCING RARE SUGAR-CONTAINING COMPOSITION AND RARE SUGAR-CONTAINING COMPOSITION” (NATIONAL UNIVERSITY CORPORATION KAGAWA UNIVERSITY, priority 2018, published 2021).

Experiments:
[1] = relative to sugar
[2] = already known

SMILES | sweetness intensity, % of that of sugar [1] | result of an acute oral toxicity test [2]
O=C[C@H](O)[C@@H](O)[C@H](O)[C@H](O)CO [D-glucose] | about 70% | 
O=C(CO)[C@@H](O)[C@H](O)[C@H](O)CO [D-fructose] | about 170% | 
O=C(CO)[C@H](O)[C@H](O)[C@H](O)CO [D-psicose] | about 70% | ≥ 5,000 mg/kg
